Experimental data from US7612208B2, “Crystalline form of the salt of 4-(3-chloro-4-(cyclopropylaminocarbonyl)aminophenoxy)-7-methoxy-6-quinolinecarboxamide or the solvate of the salt and a process for preparing the same” (Eisai R&D Management Co., Ltd., priority 2003, dated 2009).
One block for each molecule: values may come before it.

Key:
[1] = Temperature-controlled powder X-ray diffraction; assay type: physicochemical; conditions: 2° C./min
Protocol: Powder X-ray diffraction was conducted under the measurement conditions similar to those in 4. (powder X-ray diffraction) of Test Examples 3. The temperature was increased according to the following conditions. • Temperature controller: PCT-20 (manufactured by Rigaku Denki K.K.) • Rate for the increase of the temperature: 2° C./min • Measurement temperatures: 30° C., 40° C., 60° C., 80° C., 120° C., 140° C., 180° C., 200° C., 205° C., 210° C. and 215° C. [Results]

[2] = molecular target: c-Kit kinase (Homo sapiens, UniProt P10721); conditions: cited from earlier work
Sequence of c-Kit kinase (P10721 26-976): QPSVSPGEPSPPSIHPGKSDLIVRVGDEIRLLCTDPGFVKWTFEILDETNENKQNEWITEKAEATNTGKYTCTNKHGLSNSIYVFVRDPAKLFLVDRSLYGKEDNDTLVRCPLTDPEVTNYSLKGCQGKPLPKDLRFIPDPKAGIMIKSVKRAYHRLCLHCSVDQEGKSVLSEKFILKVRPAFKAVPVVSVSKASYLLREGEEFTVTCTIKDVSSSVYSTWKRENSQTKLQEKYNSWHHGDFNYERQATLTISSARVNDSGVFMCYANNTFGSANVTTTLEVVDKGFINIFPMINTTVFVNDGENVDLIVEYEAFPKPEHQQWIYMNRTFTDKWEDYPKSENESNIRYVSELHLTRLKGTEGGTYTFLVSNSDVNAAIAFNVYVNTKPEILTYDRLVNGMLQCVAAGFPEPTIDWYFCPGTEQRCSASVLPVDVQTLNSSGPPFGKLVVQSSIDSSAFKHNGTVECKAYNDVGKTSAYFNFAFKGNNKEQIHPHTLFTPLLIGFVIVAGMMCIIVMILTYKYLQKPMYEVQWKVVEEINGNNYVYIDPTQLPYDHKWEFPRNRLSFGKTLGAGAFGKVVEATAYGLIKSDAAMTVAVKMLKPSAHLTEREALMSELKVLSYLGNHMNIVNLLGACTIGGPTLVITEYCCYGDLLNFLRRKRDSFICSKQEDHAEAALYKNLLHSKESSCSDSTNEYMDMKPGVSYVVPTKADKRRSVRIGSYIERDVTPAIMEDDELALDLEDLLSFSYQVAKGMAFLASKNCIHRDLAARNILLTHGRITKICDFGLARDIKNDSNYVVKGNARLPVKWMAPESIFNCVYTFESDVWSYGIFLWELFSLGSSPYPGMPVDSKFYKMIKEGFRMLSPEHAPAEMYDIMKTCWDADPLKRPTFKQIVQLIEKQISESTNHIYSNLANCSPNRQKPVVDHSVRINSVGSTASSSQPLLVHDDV

[3] = system: angiogenesis; conditions: free-form product; Example 368 of WO 02/32872; cited from earlier work
[4] = Study of pharmacokinetics in beagle dogs; assay type: in vivo; conditions: mean ± standard error; for BA: beagle dogs n=3, oral 3 mg/kg as free form vs single intravenous administration of free form
Protocol: A crystalline form of the free from of the carboxamide (obtained in Preparation Example 1), a crystalline form of the hydrobromide of the carboxamide (obtained in Example 2) and a crystalline form of the mesylate of the carboxamide (Form A) (obtained in Example 5) were grounded in a mortar, encapsulated in a gelatin capsule, and then administered orally to beagle dogs (n=3). After administration, 10 mL of water was further administered orally. The dose was set such that it was equivalent to 3 mg/kg as a free form, and the beagle dogs were fasted from the day before administration, and fed again 8 hours after the administration.
To calculate bioavailability (BA), a test was conducted using a single intravenous administration. More specifically, a crystalline form of the free from of the carboxamide was dissolved in a solution containing 10% dimethyl sulfoxide, 50% polyethylene glycol 400 and 40% 0.1 M aqueous solution of hydrochloric acid and administered intravenously through cephalic vein of the foreleg.
The plasma concentration of the carboxamide was measured by HPLC-UV method after sampling blood from cephalic vein of the foreleg. Based on the concentration, pharmacokinetic parameters were calculated for each individual by the moment method. Further, based on the calculated parameters, the mean value and standard error thereof were calculated.

[5] = Test for measuring dissolution rate (rotating disk method); assay type: physicochemical; conditions: 2nd fluid pH 6.8, 37° C., 50 rpm
Protocol: The dissolution rates of the following crystals were measured under the conditions described below by the rotating disk method (see, J. H. Woods et al., J. Pharm. Soc., 54, 1068 (1955)): a crystalline form of the free carboxamide (obtained in Preparation Example 1), a crystalline form of the hydrochloride of the carboxamide (obtained in Example 1), a crystalline form of the hydrobromide of the carboxamide (obtained in Example 2), a crystalline form of the methanesulfonate (hereunder, referred to as “mesylate”) of the carboxamide (Form A) (obtained in Example 5), a crystalline form of the mesylate of the carboxamide (Form C) (obtained in Example 7) and a crystalline form of the ethanesulfonate (hereunder, referred to as “esylate”) (Form β) (obtained in Example 12). The dissolution rates were calculated based on a range in which linearity was maintained in the relation between concentration and time at the initial stage of dissolution.
(Rotating Disk Method Conditions)
• Solvent: “2nd fluid” (pH 6.8, 500 mL) as described in Japanese Pharmacopoeia 14th Edition, General Tests (disintegration test) • Temperature: 37° C. • Disk rotation speed: 50 rpm • Area of powder contacting with solvent on disk: 1 cm^2 • Sampling amount: approx. 1 mL (HPLC Conditions) • Column: Cadenza CD-18 (Imtakt Corporation; inner diameter 4.6 mm, Column length 100 mm, particle size 3 μm) • Column temperature: 40° C. • Flow rate: 1.0 mL/min • Mobile phase:
Concentration of solution B: 20% • Injection amount: 100 μL • Detection: ultraviolet absorbance photometer (wavelength: 252 nm) • Temperature of auto sampler: 25° C. [Results]

[6] = Evaluation of hygroscopicity (storage 1 week; water content, powder X-ray diffraction); assay type: physicochemical
Protocol: The hygroscopicity and solid stability of a crystalline form of the mesylate of the carboxamide (Form A) (obtained in Example 5), a crystalline form of the mesylate of the carboxamide (Form C) (obtained in Example 7), a crystalline form of the acetic acid solvate of the mesylate of the carboxamide (Form I) (obtained in Example 10) and a crystalline form of the esylate of the carboxamide (Form β) (obtained in Example 12) were measured under the following conditions.
1. Storage Conditions for the Hygroscopicity Test (Period: 1 Week)
a-1. 25° C., relative humidity 75%
b-1. 25° C., relative humidity 93%
Analysis was carried out according to “X-Ray Powder Diffraction Method” described in Japanese Pharmacopoeia 14th Edition, General Tests (B-614 to 619) under the following measurement conditions. • Apparatus: RINT-2000 (manufacture by Rigaku Denki K. K.) • X-ray: CuKα ray • Monochrometer: curved crystal monochrometer • Goniometer: vertical goniometer • Counter: scintillation counter • Applied voltage: 40 kV • Charging current: 200 mA • Scan speed: 5°/min • Scan axis: 2θ/θ • Scan range; 2θ+5° to 40° • Divergent slit: 0.5° • Scattering slit: 0.5° • Receiving slit: 0.3 mm 5. Measurement of Water Content
Measurement was carried out according to the Water Determination as described in Japanese Pharmacopoeia 14th Edition, General Tests (B-318 to 331) using 6 to 10 mg of each crystal.

[7] = Evaluation of solid stability (storage 2 weeks; total impurity by HPLC, water content, powder X-ray diffraction); assay type: physicochemical
Protocol: 2. Storage Conditions for the Solid Stability Test (Period: 2 Weeks) a-2. −20° C. (well closed) b-2. 25° C., light irradiation (1000 1×; shading with aluminum foil, well closed) c-2. 25° C., light irradiation (1000 1×; well closed) […]
e-2. 60° C. (well closed except the following case: slightly open in the case of a crystalline form of the acetic acid solvate of the mesylate (Form I))
3. Method for Measuring the Impurity Amount by HPLC
After storage, the sample solution was prepared by adding a mixed solvent of water and methanol (3:1) to each crystal at 0.1 mg/mL as final concentration.
Tests were conducted by the HPLC method for these sample solutions under the measurement conditions described below, and the eluted peak areas were measured to determine the total impurity amount by the relative area method (impurities of 0.05% or more were counted).
(Formula for Calculating Total Impurity Amount)
• Individual impurity amount (%)=(the peak area for the individual impurity)×100/{(the peak area for carboxamide)+(sum of the peak areas for impurities)} • Total impurity amount (%)=sum of individual impurity amounts (HPLC Measurement Conditions) • Column: Mightysil RP-18 GP (Kanto Kagaku; inner diameter 4.6 mm, column length 150 mm, particle size 3 μm) • Column temperature: constant temperature in vicinity of 40° C. • Flow rate: 1.0 mL/min • Mobile phase:
Solution B: CH3CN:H2O:HClO4=900:100:1 (v/v/v) • Gradient conditions […]
• Injection amount: 10 μL • Detection: ultraviolet absorbance photometer (wavelength: 252 nm) • Temperature of auto sampler: constant temperature in vicinity of 10° C. 4. Powder X-ray Diffraction […]
Measurement of Water Content

[8] = Powder X-ray diffraction with a treatment of humidification; assay type: physicochemical; conditions: room temperature
Protocol: Powder X-ray diffraction was measured under the measurement conditions similar to those in 4. (powder X-ray diffraction) of Test Example 3. Humidification was carried out using a humidity control unit HUM-1A (manufactured by Rigaku Denki K. K.)), to sequentially adjust relative humidity to 3%, 30%, 50%, 60%, 70%, 75%, 80% and 85% at room temperature.

[9] = beagle dogs n=3, oral, gelatin capsule, 3 mg/kg as free form, fasted
[10] = 25° C., relative humidity 75% or 93%, 1 week
[11] = a-2: −20° C. (well closed), 2 weeks
[12] = b-2: 25° C., light irradiation 1000 lx, shading with aluminum foil, well closed, 2 weeks
[13] = c-2: 25° C., light irradiation 1000 lx, well closed, 2 weeks
[14] = d-2: 40° C., relative humidity 75%, 2 weeks
[15] = e-2: 60° C., 2 weeks (well closed; slightly open for Form I)

crystal transition on heating ([1]; temperatures from 30° C. to 80° C.): crystal transition was not observed
SMILES: COc1cc2nccc(Oc3ccc(NC(=O)NC4CC4)c(Cl)c3)c2cc1C(N)=O.CS(=O)(=O)O.C[S+](C)[O-] [Dimethyl Sulfoxide Solvate of Methanesulfonate of 4-(3-chloro-4-(cyclopropylaminocarbonyl)aminophenoxy)-7-methoxy-6-quinolinecarboxamide]
crystal transition on heating ([1]; temperatures of 120° C. or more): transition to a crystalline form of the mesylate (Form C) was observed

BA [4]: 9.1 ± 0.4%
AUC(0-t) ([4]; dog, plasma, beagle dogs n=3, oral, gelatin capsule, 3 mg/kg as free form, fasted, read-out: AUC0-24hr): 600 ng·h/mL
Cmax ([4]; dog, plasma, beagle dogs n=3, oral, gelatin capsule, 3 mg/kg as free form, fasted, read-out: Maximum plasma concentration (Cmax)): 53.3 ± 9.9 ng/mL
concentration at 24 h ([4]; dog, plasma, beagle dogs n=3, oral, gelatin capsule, 3 mg/kg as free form, fasted, read-out: plasma concentration after 24 hours (C24hr)): 24 ± 9 ng/mL
Tmax ([4]; dog, plasma, beagle dogs n=3, oral, gelatin capsule, 3 mg/kg as free form, fasted, read-out: time to reach maximum plasma concentration (Tmax)): 1.17 ± 0.4 h
dissolution rate [5]: 0.8 μg/min/cm^2
SMILES: COc1cc2nccc(Oc3ccc(NC(=O)NC4CC4)c(Cl)c3)c2cc1C(N)=O [free form, 4-(3-chloro-4-(cyclopropylaminocarbonyl)aminophenoxy)-7-methoxy-6-quinolinecarboxamide]
inhibitory action for c-Kit kinase [2]: strong inhibitory action
angiogenesis inhibition [3]: excellent angiogenesis inhibition

BA [4]: 73.5 ± 2.3%
AUC0-24hr [4, 9]: 4800 ± 200 ng·h/mL
Maximum plasma concentration (Cmax) [4, 9]: 480.4 ± 31.4 ng/mL
plasma concentration after 24 hours (C24hr) [4, 9]: 100.5 ± 81.7 ng/mL
time to reach maximum plasma concentration (Tmax) [4, 9]: 2.67 ± 0.7 h
dissolution rate [5]: 8.7 μg/min/cm^2
SMILES: Br.COc1cc2nccc(Oc3ccc(NC(=O)NC4CC4)c(Cl)c3)c2cc1C(N)=O [hydrobromide, Hydrobromide of 4-(3-chloro-4-(cyclopropylaminocarbonyl)aminophenoxy)-7-methoxy-6-quinolinecarboxamide]

change of water content [6, 10]: did not change remarkably
hygroscopicity [6, 10]: not observed
water content ([6]; a-1: 25° C., relative humidity 75%, 1 week): 0.6%
water content ([6]; b-1: 25° C., relative humidity 93%, 1 week): 0.7%
water content ([6]; hygroscopicity test, initial): 0.7%
total impurity [7, 11]: 3.90%
water content [7, 11]: 0.0%
total impurity [7, 12]: 3.95%
water content [7, 12]: 0.0%
total impurity [7, 13]: 4.23%
water content [7, 13]: 0.1%
total impurity [7, 14]: 3.90%
water content [7, 14]: 0.2%
total impurity [7, 15]: 3.97%
water content [7, 15]: 0.2%
water content ([7]; solid stability test, initial): 0.3%
total impurity ([7]; solid stability test, initial, HPLC relative area): 4.02%
BA [4]: 46.2 ± 5.9%
AUC0-24hr [4, 9]: 3000 ± 400 ng·h/mL
Maximum plasma concentration (Cmax) [4, 9]: 397.1 ± 100.1 ng/mL
plasma concentration after 24 hours (C24hr) [4, 9]: 17.1 ± 2.5 ng/mL
time to reach maximum plasma concentration (Tmax) [4, 9]: 1.67 ± 0.3 h
dissolution rate [5]: 11.8 μg/min/cm^2
SMILES: COc1cc2nccc(Oc3ccc(NC(=O)NC4CC4)c(Cl)c3)c2cc1C(N)=O.CS(=O)(=O)O [mesylate (Form A), Methanesulfonate of 4-(3-chloro-4-(cyclopropylaminocarbonyl)aminophenoxy)-7-methoxy-6-quinolinecarboxamide]
change in appearance and crystal transition [6, 10]: Neither remarkable change in appearance nor crystal transition was observed
changes in water content and appearance, crystal transition ([7]; solid stability test, 2 weeks, all storage conditions): neither remarkable changes in water content and appearance nor crystal transition was observed

crystal transition on humidification ([8]; relative humidity from 3% to 70%): did not exhibit a crystal transition
SMILES: COc1cc2nccc(Oc3ccc(NC(=O)NC4CC4)c(Cl)c3)c2cc1C(N)=O.CS(=O)(=O)O [mesylate (Form B), Methanesulfonate of 4-(3-chloro-4-(cyclopropylaminocarbonyl)aminophenoxy)-7-methoxy-6-quinolinecarboxamide]
crystal transition on humidification ([8]; relative humidity of 75% and 80%): mixture of crystalline forms of the mesylate (Form B) and (Form C)
crystal transition on humidification ([8]; relative humidity of 85%): complete transition to a crystalline form of the mesylate (Form C)
